What all share (type): binding
Conditions in all cases: no reducing agent, 1 h

For one assay, the target named is T1, STAT5b (Homo sapiens, UniProt P51692).
T1 sequence (P51692 1-787): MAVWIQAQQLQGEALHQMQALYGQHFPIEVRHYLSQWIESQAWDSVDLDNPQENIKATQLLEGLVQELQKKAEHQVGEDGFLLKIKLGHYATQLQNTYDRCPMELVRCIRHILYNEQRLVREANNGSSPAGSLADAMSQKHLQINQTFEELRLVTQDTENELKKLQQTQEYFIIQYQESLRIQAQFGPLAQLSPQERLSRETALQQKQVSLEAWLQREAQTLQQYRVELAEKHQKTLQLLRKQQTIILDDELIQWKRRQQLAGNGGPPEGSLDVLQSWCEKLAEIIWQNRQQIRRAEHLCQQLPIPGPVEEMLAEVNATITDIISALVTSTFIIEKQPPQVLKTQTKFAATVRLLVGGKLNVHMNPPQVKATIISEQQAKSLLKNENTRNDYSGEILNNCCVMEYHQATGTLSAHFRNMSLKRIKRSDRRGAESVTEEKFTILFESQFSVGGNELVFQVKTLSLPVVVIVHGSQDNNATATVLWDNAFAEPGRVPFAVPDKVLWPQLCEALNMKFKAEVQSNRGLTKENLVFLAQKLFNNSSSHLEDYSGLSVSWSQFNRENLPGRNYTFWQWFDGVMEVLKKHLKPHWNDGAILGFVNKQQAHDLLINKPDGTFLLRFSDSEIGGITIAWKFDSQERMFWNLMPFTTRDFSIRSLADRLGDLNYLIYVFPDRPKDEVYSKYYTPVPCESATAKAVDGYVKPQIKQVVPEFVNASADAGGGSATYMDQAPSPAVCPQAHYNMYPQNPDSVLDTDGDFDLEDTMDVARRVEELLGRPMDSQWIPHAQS
Nature of the assay: Competitive fluorescence polarization (FP) assay, STAT5b. From the text:
(§1) Screening of chemical libraries
(§2) Screening of chemical libraries comprising approximately 5000 known bioactive compounds in fluorescence polarization-based assays against phosphorylation-dependent protein-protein interaction domains, including STAT proteins, has been described.[1] PPADS was purchased from Sigma-Aldrich, and iso-PPADS from Bio-Techne.
(§3) Fluorescence polarization assays
(§4) Competitive fluorescence polarization (FP) assays for STAT1,[2] STAT3,[3] STAT4,[4] STAT5a,[5] STAT5b[6] and STAT6[1] were performed as previously described. Briefly, peptide binding to proteins was analyzed using the following carboxyfluorescein (CF) -labelled pepti des at a concentration of 10 nM: STAT1: 5-CF-GpYDKPHVL-OH, STAT3: 5-CF-GpYLPQTV -NH2, STAT4: 5-CF-GpYLPQNID-OH, STAT5a and STAT5b: 5-CF-GpYLVLDKW-OH, STAT6: 5- […]
(§5) CFGp[…]-OH. Proteins were used at a final concentration representing the approximate Kd value for binding of the corresponding peptide to the protein, namely 65 nM for STAT1, 65 nM for STAT3, 35 nM for STAT4, 125 nM for STAT5a, 65 nM for STAT5b and 75 nM for STAT6. […] FP was measured using an Infinite F500 plate reader (Tecan) and measurements were converted into percent inhibition according to the binding curve equation. Curves were plotted and best fits calculated using OriginPro […]

A further assay addresses T2, STAT6 (Homo sapiens, UniProt P42226).
T2 sequence (P42226 1-847): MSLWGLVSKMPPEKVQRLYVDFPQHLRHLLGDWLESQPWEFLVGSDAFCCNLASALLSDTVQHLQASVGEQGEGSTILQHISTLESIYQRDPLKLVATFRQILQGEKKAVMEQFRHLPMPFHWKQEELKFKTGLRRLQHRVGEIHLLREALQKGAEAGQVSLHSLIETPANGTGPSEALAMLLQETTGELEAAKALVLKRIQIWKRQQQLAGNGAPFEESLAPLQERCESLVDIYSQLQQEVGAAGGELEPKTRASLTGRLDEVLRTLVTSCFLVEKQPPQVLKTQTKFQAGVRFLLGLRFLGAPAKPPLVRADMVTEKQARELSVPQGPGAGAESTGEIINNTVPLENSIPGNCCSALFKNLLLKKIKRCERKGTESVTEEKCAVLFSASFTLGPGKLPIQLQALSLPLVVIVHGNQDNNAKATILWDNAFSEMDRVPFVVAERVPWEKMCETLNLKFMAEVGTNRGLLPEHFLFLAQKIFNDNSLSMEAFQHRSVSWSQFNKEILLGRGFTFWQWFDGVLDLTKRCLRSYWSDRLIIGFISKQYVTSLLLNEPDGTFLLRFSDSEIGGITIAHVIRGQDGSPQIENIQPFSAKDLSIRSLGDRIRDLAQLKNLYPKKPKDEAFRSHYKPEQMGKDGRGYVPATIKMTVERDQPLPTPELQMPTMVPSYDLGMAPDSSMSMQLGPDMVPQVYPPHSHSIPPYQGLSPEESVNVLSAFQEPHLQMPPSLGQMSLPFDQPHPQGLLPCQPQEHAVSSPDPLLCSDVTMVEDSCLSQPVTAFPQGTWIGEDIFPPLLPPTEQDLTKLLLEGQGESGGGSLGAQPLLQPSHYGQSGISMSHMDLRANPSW
The experiment in a line: Competitive fluorescence polarization (FP) assay, STAT6. On the procedure: Screening of chemical libraries […]
PPADS was purchased […]
from Sigma-Aldrich, and iso-PPADS from Bio-Techne.
as §3, §4
CFGp[…]-OH. Proteins were used at a final concentration representing the approximate Kd value for binding of the corresponding peptide to the protein, namely 65 nM for STAT1, 65 nM for STAT3, 35 nM for STAT4, 125 nM for STAT5a, 65 nM for STAT5b and 75 nM for STAT6. Assays were carried out in buffer containing 10 mM Tris/HCl, 50 mM NaCl, 1 mM EDTA, 0.1% NP-40 substitute and 2% DMSO, with 1 mM reducing agent where applicable, at pH 8.0. Proteins were incubated with compound for 1 h at room temperature before adding peptide and incubating for a further 1 h. FP was measured using an Infinite F500 plate reader (Tecan) and measurements were converted into percent inhibition according to […]

The target of the next assay is STAT3 (Homo sapiens, UniProt P40763). Nature of the assay: Competitive fluorescence polarization (FP) assay, STAT3.
STAT3, sequence (P40763 whole entry, species assumed): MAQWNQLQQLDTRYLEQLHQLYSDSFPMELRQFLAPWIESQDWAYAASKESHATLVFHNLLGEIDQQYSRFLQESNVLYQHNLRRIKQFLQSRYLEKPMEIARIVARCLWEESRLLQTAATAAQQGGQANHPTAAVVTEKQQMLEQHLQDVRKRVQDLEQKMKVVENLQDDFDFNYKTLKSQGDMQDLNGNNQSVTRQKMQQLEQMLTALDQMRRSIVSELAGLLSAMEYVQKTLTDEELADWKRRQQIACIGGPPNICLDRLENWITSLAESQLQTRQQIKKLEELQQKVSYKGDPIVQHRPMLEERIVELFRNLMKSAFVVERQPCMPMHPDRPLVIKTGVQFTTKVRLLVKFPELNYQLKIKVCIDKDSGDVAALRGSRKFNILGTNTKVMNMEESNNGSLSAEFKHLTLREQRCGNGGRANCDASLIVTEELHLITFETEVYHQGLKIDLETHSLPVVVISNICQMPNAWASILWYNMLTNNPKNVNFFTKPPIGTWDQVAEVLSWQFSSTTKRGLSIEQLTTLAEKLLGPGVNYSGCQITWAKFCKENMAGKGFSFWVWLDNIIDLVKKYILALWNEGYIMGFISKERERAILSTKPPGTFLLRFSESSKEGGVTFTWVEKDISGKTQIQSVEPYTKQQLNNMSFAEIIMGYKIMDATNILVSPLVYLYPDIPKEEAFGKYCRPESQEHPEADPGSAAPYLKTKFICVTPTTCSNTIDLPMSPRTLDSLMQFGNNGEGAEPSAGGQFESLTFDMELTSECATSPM
Text: as §1, §2, §3, §4, §5

Take `Cc1nc(/N=N/c2ccc(S(=O)(=O)O)cc2S(=O)(=O)O)c(COP(=O)(O)O)c(C=O)c1O` [PPADS, pyridoxalphosphate‐6‐azophenyl‐2',4'‐disulfonic acid]: the IC50 at STAT5b was determined as 2 ± 0.3 µM; on STAT6 it was 20.1 ± 4.6 µM; at STAT3, 22.6 ± 1.6 µM.

Take `Cc1nc(/N=N/c2cc(S(=O)(=O)O)ccc2S(=O)(=O)O)c(COP(=O)(O)O)c(C=O)c1O` [iso‐PPADS]: the IC50 was 1.9 ± 0.1 µM on STAT5b, 66 ± 12 µM on STAT6 and 54 ± 14 µM on STAT3.
